According to patent publication US20130072470A1 (ABBVIE INC., priority 2011, published 2013):

Molecular target: T1, Jak3 enzyme (aa 811-1103) (Homo sapiens, UniProt P52333)
T1 construct: Jak3 enzyme (aa 811-1103); expressed in SF9 cells as a GST fusion; GST; made in house; host or cells: SF9 insect cells
Assay: In vitro Jak3 kinase activity measured by time-resolved fluorescence resonance energy transfer (trFRET)
Assay type: biochemical
Details: ATP 0.001 mM
Description: In Vitro Jak3 Kinase Activity Measured by Time-Resolved Fluorescence Resonance Energy Transfer (trFRET)
Varying concentrations of inhibitor were added to an assay well containing: Jak3 enzyme (aa 811-1103; expressed in SF9 cells as a GST fusion and purified by glutathione affinity chromatography; 3 nM), peptide substrate (biotin-TYR2, Sequence: Biotin-(Ahx)-AEEEYFFLFA-amide; 2 μM), MOPSO pH 6.5 (50 mM), MgCl2 (10 mM), MnCl2 (2 mM), DTT (2.5 mM), BSA (0.01% w/v), Na3VO4 (0.1 mM) and ATP (0.001 mM). After about 60 min incubation at rt, the reaction was quenched by addition of EDTA (final concentration: 100 mM) and developed by addition of revelation reagents (final approximate concentrations: 30 mM HEPES pH 7.0, 0.06% BSA, 0.006% Tween-20, 0.24 M KF, 80 ng/mL PT66K (europium labeled anti-phosphotyrosine antibody cat #61T66KLB Cisbio, Bedford, Mass.) and 0.8 μg/mL SAXL (Phycolink streptavidin-allophycocyanin acceptor, cat #PJ52S, Prozyme, San Leandro, Calif.). The developed reaction was incubated in the dark either at about 4° C., for about 14 h or for about 60 min at rt, then read via a time-resolved fluorescence detector (Rubystar, BMG) using a 337 nm laser for excitation and emission wavelength of 665 nm. Within the linear range of the assay, the observed signal at 665 nm is directly related to phosphorylated product and used to calculate the IC50 values.

T1 sequence (P52333 811-1103): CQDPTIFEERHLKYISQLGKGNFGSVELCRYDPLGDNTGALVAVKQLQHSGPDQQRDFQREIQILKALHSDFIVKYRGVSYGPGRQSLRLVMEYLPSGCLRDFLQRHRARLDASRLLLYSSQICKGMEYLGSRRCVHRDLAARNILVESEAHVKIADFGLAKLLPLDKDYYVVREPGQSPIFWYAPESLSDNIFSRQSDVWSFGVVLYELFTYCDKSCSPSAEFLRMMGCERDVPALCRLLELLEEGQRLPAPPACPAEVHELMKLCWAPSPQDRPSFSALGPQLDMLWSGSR

`C[C@@H]1C[C@@H](CCC#N)C[C@@H]1c1nnc2cnc3[nH]ccc3n12` [Example #10, 3-((1R,3R,4S)-3-methyl-4-(6H-pyrrolo[2,3-e][1,2,4]triazolo[4,3-a]pyrazin-1-yl)cyclopentyl)propanenitrile] and `CC[C@@H]1CN(C(=O)NCCF)C[C@@H]1c1cnc2cnc3[nH]ccc3n12` [Example #13, (3S,4R)-3-ethyl-N-(2-fluoroethyl)-4-(3H-imidazo[1,2-a]pyrrolo[2,3-e]pyrazin-8-yl)pyrrolidine-1-carboxamide] fall in the same range of IC50: 1 to 10 µM for the first, 1 to 10 µM for the second.

First: C[C@@H]1C[C@@H](CCC#N)C[C@@H]1n1nnc2cnc3[nH]ccc3c21 [Example #11, 3-((1R,3R,4S)-3-methyl-4-(pyrrolo[2,3-b][1,2,3]triazolo[4,5-d]pyridin-1(6H)-yl)cyclopentyl)propanenitrile]
Second: 1-((1R,3S,4R)-3-(3H-imidazo[1,2-a]pyrrolo[2,3-e]pyrazin-8-yl)-4-methylcyclopentyl)methyl)azetidine-3-carbonitrile and 1-(((1S,3S,4R)-3-(3H-imidazo[1,2-a]pyrrolo[2,3-e]pyrazin-8-yl)-4-methylcyclopentyl)methyl)azetidine-3-carbonitrile [Example #7]
The IC50 of the first is lower: 1 to 10 µM for the first, greater than 10 µM for the second. The first is the more potent here.

First: C[C@@H]1C[C@H](N2CCC(C#N)CC2)C[C@@H]1c1cnc2cnc3[nH]ccc3n12 [Example #5, 1-((1S,3S,4R)-3-(3H-imidazo[1,2-a]pyrrolo[2,3-e]pyrazin-8-yl)-4-methylcyclopentyl)piperidine-4-carbonitrile]
Second: CC[C@@H]1CN(C(=O)CCCC#N)C[C@@H]1c1cnc2cnc3[nH]ccc3n12 [Example #12]
The IC50 of the first is higher: greater than 10 µM for the first, 1 to 10 µM for the second. The second is the more potent here.

Same assay, conditions: ATP 0.001 mM, Table B

`CC[C@@H]1C[C@H](NC(=O)c2ccco2)C[C@@H]1c1nnc2cnc3[nH]ccc3n12` [compound 78, N-((1S,3R,4S)-3-ethyl-4-(6H-pyrrolo[2,3-e][1,2,4]triazolo[4,3-a]pyrazin-1-yl)cyclopentyl)furan-2-carboxamide] and `CC[C@@H]1C[C@H](NC(=O)CNC(=O)c2ccco2)C[C@@H]1c1nnc2cnc3[nH]ccc3n12` [compound 48] fall in the same range of IC50: 1 to 10 µM for the first, 1 to 10 µM for the second.

`CC[C@@H]1C[C@H](NC(=O)CCC2CCCCC2)C[C@@H]1c1nnc2cnc3[nH]ccc3n12` [compound 77, 3-cyclohexyl-N-((1S,3R,4S)-3-ethyl-4-(6H-pyrrolo[2,3-e][1,2,4]triazolo[4,3-a]pyrazin-1-yl)cyclopentyl)propanamide] and `CC[C@@H]1C[C@H](NC(=O)CCC2NC(=O)NC2=O)C[C@@H]1c1nnc2cnc3[nH]ccc3n12` (stereo partly drawn) [compound 28, 3-(2,5-dioxoimidazolidin-4-yl)-N-((1S,3R,4S)-3-ethyl-4-(6H-pyrrolo[2,3-e][1,2,4]triazolo[4,3-a]pyrazin-1-yl)cyclopentyl)propanamide] fall in the same range of IC50: 1 to 10 µM for the first, 1 to 10 µM for the second.

First: CC[C@@H]1C[C@H](NC(=O)c2cc3ccc(C)cc3o2)C[C@@H]1c1nnc2cnc3[nH]ccc3n12 [compound 33, N-((1S,3R,4S)-3-ethyl-4-(6H-pyrrolo[2,3-e][1,2,4]triazolo[4,3-a]pyrazin-1-yl)cyclopentyl)-6-methylbenzofuran-2-carboxamide]
Second: CC[C@@H]1C[C@H](NC(=O)c2ccc(C)o2)C[C@@H]1c1nnc2cnc3[nH]ccc3n12 [compound 46, N-((1S,3R,4S)-3-ethyl-4-(6H-pyrrolo[2,3-e][1,2,4]triazolo[4,3-a]pyrazin-1-yl)cyclopentyl)-5-methylfuran-2-carboxamide]
The IC50 of the first is lower: 1 to 10 µM for the first, greater than 10 µM for the second.

`CC[C@@H]1C[C@H](NC(=O)c2ccno2)C[C@@H]1c1nnc2cnc3[nH]ccc3n12` [compound 50, N-((1S,3R,4S)-3-ethyl-4-(6H-pyrrolo[2,3-e][1,2,4]triazolo[4,3-a]pyrazin-1-yl)cyclopentyl)isoxazole-5-carboxamide] and `CC[C@@H]1C[C@H](NC(=O)c2occc2C)C[C@@H]1c1nnc2cnc3[nH]ccc3n12` [compound 79, N-((1S,3R,4S)-3-ethyl-4-(6H-pyrrolo[2,3-e][1,2,4]triazolo[4,3-a]pyrazin-1-yl)cyclopentyl)-3-methylfuran-2-carboxamide] fall in the same range of IC50: 1 to 10 µM for the first, 1 to 10 µM for the second.

`CC[C@@H]1C[C@H](NC(=O)CNC(=O)c2ccc(C)o2)C[C@@H]1c1nnc2cnc3[nH]ccc3n12` [compound 30, N-(2-((1S,3R,4S)-3-ethyl-4-(6H-pyrrolo[2,3-e][1,2,4]triazolo[4,3-a]pyrazin-1-yl)cyclopentylamino)-2-oxoethyl)-5-methylfuran-2-carboxamide] and `CC[C@@H]1C[C@H](NC(=O)CNC(=O)c2cnoc2C)C[C@@H]1c1nnc2cnc3[nH]ccc3n12` [compound 38, N-(2-((1S,3R,4S)-3-ethyl-4-(6H-pyrrolo[2,3-e][1,2,4]triazolo[4,3-a]pyrazin-1-yl)cyclopentylamino)-2-oxoethyl)-5-methylisoxazole-4-carboxamide] fall in the same range of IC50: 1 to 10 µM for the first, 1 to 10 µM for the second.

First: CC[C@@H]1C[C@H](NC(=O)CCc2ccco2)C[C@@H]1c1nnc2cnc3[nH]ccc3n12 [compound 53, N-((1S,3R,4S)-3-ethyl-4-(6H-pyrrolo[2,3-e][1,2,4]triazolo[4,3-a]pyrazin-1-yl)cyclopentyl)-3-(furan-2-yl)propanamide]
Second: CC[C@@H]1C[C@H](NC(=O)CN(C)C(=O)c2ccco2)C[C@@H]1c1nnc2cnc3[nH]ccc3n12 [compound 27, N-(2-((1S,3R,4S)-3-ethyl-4-(6H-pyrrolo[2,3-e][1,2,4]triazolo[4,3-a]pyrazin-1-yl)cyclopentylamino)-2-oxoethyl)-N-methylfuran-2-carboxamide]
The IC50 of the first is lower: less than 1 µM for the first, greater than 10 µM for the second. The first is the more potent here.

Compared with `CC[C@@H]1C[C@H](NC(=O)c2coc3ccccc23)C[C@@H]1c1nnc2cnc3[nH]ccc3n12` [compound 32, N-((1S,3R,4S)-3-ethyl-4-(6H-pyrrolo[2,3-e][1,2,4]triazolo[4,3-a]pyrazin-1-yl)cyclopentyl)benzofuran-3-carboxamide], `CC[C@@H]1C[C@H](NC(=O)c2noc3ccccc23)C[C@@H]1c1nnc2cnc3[nH]ccc3n12` [compound 68, N-((1S,3R,4S)-3-ethyl-4-(6H-pyrrolo[2,3-e][1,2,4]triazolo[4,3-a]pyrazin-1-yl)cyclopentyl)benzo[d]isoxazole-3-carboxamide] is lower in IC50: 1 to 10 µM for the first, less than 1 µM for the second.

`CC[C@@H]1C[C@H](NC(=O)C2(C#N)CC2)C[C@@H]1c1nnc2cnc3[nH]ccc3n12` [compound 54, 1-cyano-N-((1S,3R,4S)-3-ethyl-4-(6H-pyrrolo[2,3-e][1,2,4]triazolo[4,3-a]pyrazin-1-yl)cyclopentyl)cyclopropanecarboxamide] and `CC[C@@H]1C[C@H](NC(=O)c2ocnc2C)C[C@@H]1c1nnc2cnc3[nH]ccc3n12` [compound 51, N-((1S,3R,4S)-3-ethyl-4-(6H-pyrrolo[2,3-e][1,2,4]triazolo[4,3-a]pyrazin-1-yl)cyclopentyl)-4-methyloxazole-5-carboxamide] fall in the same range of IC50: 1 to 10 µM for the first, 1 to 10 µM for the second.

`CC[C@@H]1C[C@H](NC(=O)CSc2nnc(C)o2)C[C@@H]1c1nnc2cnc3[nH]ccc3n12` [compound 75, N-((1S,3R,4S)-3-ethyl-4-(6H-pyrrolo[2,3-e][1,2,4]triazolo[4,3-a]pyrazin-1-yl)cyclopentyl)-2-(5-methyl-1,3,4-oxadiazol-2-ylthio)acetamide] and `CC[C@@H]1C[C@H](NC(=O)c2cc(C)on2)C[C@@H]1c1nnc2cnc3[nH]ccc3n12` [compound 49, N-((1S,3R,4S)-3-ethyl-4-(6H-pyrrolo[2,3-e][1,2,4]triazolo[4,3-a]pyrazin-1-yl)cyclopentyl)-5-methylisoxazole-3-carboxamide] fall in the same range of IC50: 1 to 10 µM for the first, 1 to 10 µM for the second.

`CCc1cc(C(=O)N[C@H]2C[C@@H](CC)[C@@H](c3nnc4cnc5[nH]ccc5n34)C2)no1` [compound 76, 5-ethyl-N-((1S,3R,4S)-3-ethyl-4-(6H-pyrrolo[2,3-e][1,2,4]triazolo[4,3-a]pyrazin-1-yl)cyclopentyl)isoxazole-3-carboxamide] and `CC[C@@H]1C[C@H](NC(=O)c2cnoc2C2CC2)C[C@@H]1c1nnc2cnc3[nH]ccc3n12` [compound 66, 5-cyclopropyl-N-((1S,3R,4S)-3-ethyl-4-(6H-pyrrolo[2,3-e][1,2,4]triazolo[4,3-a]pyrazin-1-yl)cyclopentyl)isoxazole-4-carboxamide] fall in the same range of IC50: 1 to 10 µM for the first, 1 to 10 µM for the second.

First: CC[C@@H]1C[C@H](NC(=O)c2coc3c2C(=O)CCC3)C[C@@H]1c1nnc2cnc3[nH]ccc3n12 [compound 58, N-((1S,3R,4S)-3-ethyl-4-(6H-pyrrolo[2,3-e][1,2,4]triazolo[4,3-a]pyrazin-1-yl)cyclopentyl)-4-oxo-4,5,6,7-tetrahydrobenzofuran-3-carboxamide]
Second: CC[C@@H]1C[C@H](NC(=O)C2=NN=C(c3ccco3)C2)C[C@@H]1c1nnc2cnc3[nH]ccc3n12 [compound 39, N-((1S,3R,4S)-3-ethyl-4-(6H-pyrrolo[2,3-e][1,2,4]triazolo[4,3-a]pyrazin-1-yl)cyclopentyl)-5-(furan-2-yl)-4H-pyrazole-3-carboxamide]
The IC50 of the first is higher: 1 to 10 µM for the first, less than 1 µM for the second. The second is the more potent here.
